Results published in US20060035925A1, “SUBSTITUTED 4H-CHROMENES AND ANALOGS AS ACTIVATORS OF CASPASES AND INDUCERS OF APOPTOSIS AND THE USE THEREOF” (Cytovia, Inc., priority 1999, published 2006).
Where two headings read alike, the source gives them in different places.

What was measured:
[1] = tested on: Human breast cancer cell line T-47D; assay: Caspase cascade activation assay (N-(Ac-DEVD)-N'-ethoxycarbonyl-R110 fluorogenic substrate) in T-47D cells; type: cell-based; details: for Caspase activity (Ratio) T-47D: 24 h incubation with compound, ratio of net RFU (T=3 h) of test compound to control
Procedure: (§1) Human breast cancer cell lines T-47D and ZR-75-1 were grown according to media component mixtures designated by American Type Culture Collection +10% FCS (Invitrogen Corporation), in a 5% CO2-95% humidity incubator at 37° C. T-47D and ZR-75-1 cells were maintained at a cell density between 30 and 80% confluency at a cell density of 0.1 to 0.6×10^6 cells/ml. Cells were harvested at 600×g and resuspended at 0.65×10^6 cells/mL into appropriate media +10% FCS. An aliquot of 45 μl of cells was added to a well of a 96-well microtiter plate containing 5 μl of a 10% DMSO in RPMI-1640 media solution containing 0.16 to 10 μM of 2-amino-3-cyano-4-(3-bromo-4,5-dimethoxyphenyl)-4H-indolo[7,6-b]pyran (Example 42) or other test compound (0.016 to 1 μM final). An aliquot of 45 μl of cells was added to a well of a 96-well microtiter plate containing 5 μl of a 10% DMSO in RPMI-1640 media solution without test compound as the control sample. The samples were mixed by agitation and then incubated at 37° C. for 24 h in a 5% CO2-95% humidity incubator. After incubation, the samples were removed from the incubator and 50 μl of a solution containing 20 μM of N-(Ac-DEVD)-N′-ethoxycarbonyl-R110 (SEQ ID NO:1) fluorogenic substrate (Cytovia, Inc.; WO99/18856), 20% sucrose (Sigma), 20 mM DTT (Sigma), 200 mM NaCl (Sigma), 40 mM Na PIPES buffer pH 7.2 (Sigma), and 500 μg/ml lysolecithin (Calbiochem) was added. The samples were mixed by agitation and incubated at room temperature. Using a fluorescent plate reader (Model 1420 Wallac Instruments), an initial reading (T=0) was made approximately 1-2 min after addition of the substrate solution, employing excitation at 485 nm and emission at 530 nm, to determine the background fluorescence of the control sample. After the 3 h incubation, the samples were read for fluorescence as above (T=3 h).
(§2) The Relative Fluorescence Unit values (RFU) were used to calculate the sample readings as follows: RFU(T=3h)−Control RFU(T=0)=Net RFU(T=3h)
(§3) The activity of caspase cascade activation was determined by the ratio of the net RFU value for 2-amino-3-cyano-4-(3-bromo-4,5-dimethoxyphenyl)-4H-indolo[7,6-b]pyran or other test compound to that of control samples. The EC50 (nM) was determined by a sigmoidal dose-response calculation (Prism 2.0, GraphPad Software Inc.).

[2] = tested on: Human breast cancer cell line ZR-75-1; assay: Caspase cascade activation assay (N-(Ac-DEVD)-N'-ethoxycarbonyl-R110 fluorogenic substrate) in ZR-75-1 cells; type: cell-based; details: for Caspase activity (Ratio) ZR-75-1: 24 h incubation with compound, ratio of net RFU (T=3 h) of test compound to control
Procedure: as §1, §2, §3

[3] = 24 h incubation, sigmoidal dose-response, read-out: Caspase potency EC50 (nM) T-47D
[4] = ZR-75-1 cells, 24 h incubation, sigmoidal dose-response, read-out: Caspase potency EC50 (nM) ZR-75-1
[5] = Homo sapiens, T47D, 24 h, 24 h incubation, sigmoidal dose-response, read-out: Caspase potency EC50 (nM) T-47D
[6] = Homo sapiens, ZR-75-1, 24 h, ZR-75-1 cells, 24 h incubation, sigmoidal dose-response, read-out: Caspase potency EC50 (nM) ZR-75-1

Compound | EC50 [1, 3] | EC50 [2, 4] | EC50 [1, 5] | EC50 [2, 6] | EC50 ([1]; Homo sapiens, T47D, additional compounds, Table II, read-out: Caspase potency EC50 (nM) T-47D, Table II) | EC50 ([2]; Homo sapiens, ZR-75-1, ZR-75-1 cells, additional compounds, Table II, read-out: Caspase potency EC50 (nM) ZR-75-1, Table II) | Caspase activity (Ratio) T-47D [1] | Caspase activity (Ratio) ZR-75-1 ([2]; ZR-75-1 cells) | Caspase activity (Ratio) T-47D, Table II ([1]; additional compounds, Table II) | Caspase activity (Ratio) ZR-75-1, Table II ([2]; ZR-75-1 cells, additional compounds, Table II)
CCNc1ccc2c(c1)OC(N)=C(C#N)C2c1cncc(Br)c1 (stereo not shown) [Example 32, 2-Amino-3-cyano-4-(5-bromo-3-pyridyl)-7-ethylamino-4H-chromene] |  |  | 17 nM | 4 nM |  |  | 7.2 | 9.5 |  | 
N#CC1=C(N)Oc2cc(N)ccc2C1c1cccc(I)c1 (stereo not shown) [2,7-Diamino-3-cyano-4-(3-iodophenyl)-4H-chromene] |  |  |  |  | 33 nM | 18 nM |  |  | 4.8 | 5.1
COc1cncc(C2C3=CC=C4N=CC=C4C3OC(N)=C2C#N)c1 (stereo not shown) [Example 41, 2-Amino-3-cyano-4-(5-methoxy-pyridin-3-yl)-4H-indolo[4,5-b]pyran] |  |  | 13.9 nM | 6.6 nM |  |  | 6.8 | 7.2 |  | 
N#CC1=C(N)OC2C3=CC=NC3=CC=C2C1c1cccnc1 (stereo not shown) [Example 18, 2-Amino-3-cyano-4-(3-pyridyl)-4H-indolo[4,5-b]pyran] |  |  | 56 nM | 38 nM |  |  | 9.0 | 8.8 |  | 
N#CC1=C(N)Oc2cc(N)ccc2C1c1cncc(Br)c1 (stereo not shown) [Example 37, 2,7-Diamino-3-cyano-4-(5-bromo-3-pyridyl)-4H-chromene] |  |  | 57 nM | 31 nM |  |  | 6.4 | 3.4 |  | 
COc1cc(C2C(C#N)=C(N)Oc3cc(N(C)C)ccc32)cc(Br)c1O (stereo not shown) [Example 48, 2-Amino-4-(3-bromo-4-hydroxy-5-methoxyphenyl)-3-cyano-7-dimethylamino-4H-chromene] |  |  | 36.8 nM | 23.8 nM |  |  | 10.5 | 6.1 |  | 
N#CC1=C(N)Oc2cc(N)ccc2C1c1cccc(Cl)c1 (stereo not shown) [Example 22, 2,7-Diamino-3-cyano-4-(3-chlorophenyl)-4H-chromene] |  |  | 4800 nM | 2480 nM |  |  | 5.8 | 8.0 |  | 
2-Amino-4-(3-bromo-4,5-dimethoxyphenyl)-3-cyano-9-methyl-4H-imidazo[4,5-b]chromene [Example 75] | 345 nM | 146 nM |  |  |  |  | 6.3 | 3.4 |  | 
COc1cc(C2C(C#N)=C(N)Oc3c2ccc2[nH]cnc32)cc(Br)c1OC (stereo not shown) [Example 64, 2-Amino-3-cyano-4-(3-bromo-4,5-dimethoxy-phenyl)-4H-imidazo[4,5-h]chromene] | 28.8 nM | 13.2 nM |  |  |  |  | 8.0 | 4.8 |  | 
N#CC1=C(N)OC2C3=CC=NC3=CC=C2C1c1cncc(Br)c1 (stereo not shown) [Example 36, 2-Amino-3-cyano-4-(5-bromo-3-pyridyl)-4H-indolo[4,5-b]pyran] |  |  | 10 nM | 3 nM |  |  | 5.9 | 2.9 |  | 
N#CC1=C(N)Oc2cc(N)ccc2C1c1cccc(C#N)c1 (stereo not shown) [Example 20, 2,7-Diamino-3-cyano-4-(3-cyanophenyl)-4H-chromene] |  |  | 120 nM | 58 nM |  |  | 4.0 | 5.2 |  | 
COc1cc(C2C(C#N)=C(N)Oc3cc(O)ccc32)cc(Br)c1OC (stereo not shown) [Example 1, 2-Amino-3-cyano-7-hydroxy-4-(3-bromo-4,5-dimethoxyphenyl)-4H-chromene] |  |  | 153 nM | 94 nM |  |  | 5.1 | 10.8 |  | 
COc1cc(C2C(C#N)=C(N)Oc3cc(Br)ccc32)cc(Br)c1OC (stereo not shown) [Example 62, 2-Amino-7-bromo-4-(3-bromo-4,5-dimethoxy-phenyl)-3-cyano-4H-chromene] |  |  | 144 nM | 75.3 nM |  |  | 6.6 | 6.0 |  | 
COc1cc(C2C(C#N)=C(N)Oc3c2ccc(N)c3N)cc(Br)c1OC (stereo not shown) [Example 45, 3-Cyano-2,7,8-triamino-4-(3-bromo-4,5-dimethoxyphenyl)-4H-chromene] |  |  | 41.8 nM | 35.4 nM |  |  | 6.0 | 11.9 |  | 
CNC1=C(C#N)C(c2cc(Br)c(OC)c(OC)c2)c2ccc3ccn(C)c3c2O1 (stereo not shown) [Example 76, 3-Cyano-4-(3-bromo-4,5-dimethoxyphenyl)-2-methylamino-9-methyl-4H-pyrrolo[3,2-h]chromene] |  |  | > 10000 nM | 4100 nM |  |  | 2.0 | 2.3 |  | 
COc1cc(C2C3=CC=C4N=CC=C4C3OC(N)=C2C#N)cc(Br)c1O (stereo not shown) [Example 50, 2-Amino-4-(3-bromo-4-hydroxy-5-methoxyphenyl)-3-cyano-4H-indolo[4,5-b]pyran] |  |  | 16.5 nM | 14.8 nM |  |  | 10.1 | 10.6 |  | 
Cc1cccc(C2C(C#N)=C(N)Oc3cc(N)ccc32)c1 (stereo not shown) [Example 23, 2,7-Diamino-3-cyano-4-(3-methylphenyl)-4H-chromene] |  |  | 146 nM | 102 nM |  |  | 4.6 | 5.2 |  | 

The next lines start with results.

EC50 [1, 3] | EC50 [2, 4] | EC50 [1, 5] | EC50 [2, 6] | EC50 ([1]; Homo sapiens, T47D, additional compounds, Table II, read-out: Caspase potency EC50 (nM) T-47D, Table II) | EC50 ([2]; Homo sapiens, ZR-75-1, ZR-75-1 cells, additional compounds, Table II, read-out: Caspase potency EC50 (nM) ZR-75-1, Table II) | Compound | Caspase activity (Ratio) T-47D [1] | Caspase activity (Ratio) ZR-75-1 ([2]; ZR-75-1 cells) | Caspase activity (Ratio) T-47D, Table II ([1]; additional compounds, Table II) | Caspase activity (Ratio) ZR-75-1, Table II ([2]; ZR-75-1 cells, additional compounds, Table II)
166 nM | 86.8 nM |  |  |  |  | COc1cc(C2C(C#N)=C(N)Oc3cc(N4CCOCC4)ccc32)cc(Br)c1OC (stereo not shown) [Example 66C, 2-Amino-3-cyano-7-N-morpholine-4-(3-bromo-4,5-dimethoxyphenyl)-4H-chromene] | 10.4 | 7.4 |  | 
 |  | > 10000 nM | > 10000 nM |  |  | COc1cc(C2C(C#N)=C(N)Oc3c2ccc(O)c3O)cc(Br)c1OC (stereo not shown) [Example 2C, 2-Amino-3-cyano-7,8-dihydroxy-4-(3-bromo-4,5-dimethoxyphenyl)-4H-chromene] | 1.1 | 0.9 |  | 
 |  | 63 nM | 41 nM |  |  | N#CC1=C(N)OC2C3=CC=NC3=CC=C2C1c1cccc(F)c1 (stereo not shown) [Example 2L, 2-Amino-3-cyano-4-(3-fluorophenyl)-4H-indolo[4,5-b]pyran] | 4.5 | 7.4 |  | 
 |  | 1390 nM | 786 nM |  |  | N#CC1=C(N)Oc2cc(N)ccc2C1c1cccc(F)c1 (stereo not shown) [Example 2M, 2-Amino-3-cyano-7-amino-4-(3-fluorophenyl)-4H-chromene] | 5.8 | 6.9 |  | 
 |  | 1980 nM | 1470 nM |  |  | COc1cc(C2(C)C(C#N)=C(N)Oc3cc(N(C)C)ccc32)cc(Br)c1OC (stereo not shown) [Example 68A, 2-Amino-3-cyano-7-dimethylamino-4-(3-bromo-4,5-dimethoxyphenyl)-4-methylchromene] | 6.8 | 6.5 |  | 
 |  | > 10000 nM | > 10000 nM |  |  | N#CC1=C(N)Oc2cc(O)ccc2C1c1cccc(C#N)c1 (stereo not shown) [Example 2B, 2-Amino-3-cyano-7-hydroxy-4-(3-cyanophenyl)-4H-chromene] | 1.2 | 1.9 |  | 
 |  | 323 nM | 193 nM |  |  | N#CC1=C(N)Oc2cc(N)ccc2C1c1cc(F)cc(F)c1 (stereo not shown) [Example 2O, 2-Amino-3-cyano-7-amino-4-(3,5-difluorophenyl)-4H-chromene] | 6.4 | 7.1 |  | 
110 nM | 79.4 nM |  |  |  |  | COc1cc(C2C(C#N)=C(N)Oc3cc(N4CCCC4)ccc32)cc(Br)c1OC (stereo not shown) [Example 66A, 2-Amino-3-cyano-7-pyrrolidine-4-(3-bromo-4,5-dimethoxyphenyl)-4H-chromene] | 3.7 | 6.0 |  | 
